pEC50: −log10 of the molar value. “Also recorded” adds a separate entry of the source.
Tests used:
[1] = test system: chick dorsal root ganglia; assay: Chick dorsal root ganglion cultures and neurite outgrowth; format: cell-based; details: 48 h
From the text: (§1) Forty-eight hours later, the number of neurite with a length greater than one DRG explant was quantitated. The number of neurites expressed in untreated DRG's was subtracted from the neurite number of Example 17—treated samples to yield Example 17—dependent specific neurite outgrowth.
as §1, with “form” for “from”, “outgrowth. Quantitative dose-dependent neurite outgrowth elicited by Example 17 is presented.” for “outgrowth.”
Dorsal root ganglia were dissected from chick embryos of ten day gestation. Whole ganglion explants were cultured on thin layer Matrigel-coated 12 well plates with Liebovitz L15 plus high glucose media supplemented with 2 mM glutamine and 10% fetal calf serum, and also containing 10 μM cytosine β-D arabinofuranoside (Ara C) at 37° C. in an environment containing 5% CO2. Twenty-four hours later, the DRGs were treated with various concentrations of nerve growth factor, immunophilin ligands or combinations of NFG plus drugs. Forty-eight hours after drug treatment, the ganglia were visualized under phase contrast or Hoffman Modulation contrast with a Zeiss Axiovert inverted microscope. Photomicrographs of the explants were made, and neurite outgrowth was quantitated. Neurites longer than the DRG diameter were counted as positive, with total number of neurites quantitated per each experimental condition. Three to four DRGs are cultured per well, and each treatment was performed in duplicate.

dopaminergic neurons = assay: MPTP model of Parkinson's Disease in mice; format: in vivo, CD1 mice
Method: FIG. 4 is a graph of [^3H]-CFT binding per μg of Striatal Membrane Protein. […] CD1 mice (25 g) were treated daily with 30 mg/kg MPTP (i.p.) for 5 days. […] After eighteen days, the mice were sacrificed, striata from 5 animals per group were pooled and processed into a washed membrane preparation. Binding of [3H]-CFT to these striated membrane preparations of various groups was quantitated to determine dopamine transporter levels on viable nerve terminals. Binding in the presence of 10 μM unlabelled CFT provided on estimate of nonspecific binding, which as subtracted from the total binding to quantitative specific [3H]-CFT bound. Binding was normalized to the protein content of the striatal membranes from each experimental group. Coronal and saggital brain sections from MPTP and drug treated animals were stained with anti-tyrosine hydroxylase (TH) Ig to quantitate striatal, medial forebrain bundle axonal and nigral levels of TH, which is indicative of functional dopaminergic neurons. […] Binding of [3H]CFT, a radioligand for the dopamine transporter, to the […] membranes was done to quantitate the level of the dopamine transporter (DAT) following lesion and drug treatment. Immunostaining was performed on saggital and coronal brain sections using anti-tyrosine hydoxylase Ig to quantitate survival and recovery of dopaminergic neurons. […]

SMILES: CCC(C)(C)C(=O)C(=O)N1CCC[C@H]1C(=O)OCCCc1cccnc1 [Example 17, 3-(3-Pyridyl)-1-propyl (2S)-1-(3,3-dimethyl-1,2-dioxopentyl)-2-pyrrolidinecarboxylate]
- pEC50 ([1]; Gallus gallus, read-out: ED50, neurite outgrowth): 10.30
- neurite outgrowth in sensory neuronal cultures ([1]; chick DRG explants, various concentrations): potently promotes neurite outgrowth
- recovery of [3H]-CFT binding (dopaminergic neurons; 40 mg/kg s.c. in addition to MPTP, striatal membranes, dopamine transporter level): greater than 90%
- recovery of TH-stained dopaminergic neurons (tyrosine hydroxylase immunostaining) (dopaminergic neurons; 10-40 mg/kg s.c., striatum, nigra, medial forebrain bundle, versus MPTP/Vehicle): nearly quantitative recovery; also recorded: clear and marked recovery of functional neurons
